# Assay results from patent publication US11890349B2, “Treatment of inflammatory diseases with inhibitors of C5A activity” (InflaRx GmbH, priority 2017, dated 2024).
# T1: human C5a (Homo sapiens, UniProt P01031)
# T1 sequence (P01031 678-751 limits assumed): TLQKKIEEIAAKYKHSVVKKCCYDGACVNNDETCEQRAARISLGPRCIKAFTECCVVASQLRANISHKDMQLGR
# B1: IFX-1: chimeric monoclonal IgG4 antibody which specifically binds to the soluble human complement split product C5a (antibody, V domains shown)
# VH: QVQLQQSGPQLVRPGTSVKISCKASGYSFTTFWMDWVKQRPGQGLEWIGRIDPSDSESRLDQRFKDRATLTVDKSSSTVYMQLSSPTSEDSAVYYCARGNDGYYGFAYWGQGTLVTVSS
# VL: DIVLTQSPASLAVSLGQRATISCKASQSVDYDGDSYMKWYQQKPGQPPKLLIYAASNLQSGIPARFSGSGSGTDFTLNIHPVEEEDAATYYCQQSNEDPYTFGGGTKLEIK
# Key:
# [1] = tested on: CD11b upregulation on the surface of neutrophils; test: Human CD11b potency assay (flow cytometric assay) with HS patient plasma or rhC5a-spiked human plasma; format: cell-based
# From the text: Accumulation of neutrophils at the site of inflammation is dependent on the expression of adhesion molecules, including CD11b (also known as integrin alpha M) (Larson and Springer, 1990; Carlos and Harlan, 1990). Upregulation and mobilizing of CD11b/CD18 from intracellular pools to the surface of neutrophils is essential for the rolling action and migration of human neutrophils (Smith et al., 1989). Enhanced expression of CD11b/CD18 therefore reflects an inflammatory triggering event. The human CD11b assay is conducted using flow cytometry to detect FITC-conjugated anti-CD11b antibody on the surface of neutrophils. Activated complement products, especially elevated endogenous C5a (eC5a) in HS patient plasma samples can strongly upregulate CD11b expression through the binding of C5a to its receptor C5aR (CD88) on neutrophils. Consequently, blockade of the C5a-C5aR axis is expected to abolish or attenuate CD11b upregulation on the surface of neutrophils.
# Two patient plasma samples Pat. 088 and Pat. 092 (5 μL) were incubated with fresh human blood (60 μL, as source of neutrophils) in the absence or presence of C5a-C5aR axis blockers (anti-C5a antibody IFX-1, anti-C5aR antibodies clone S5/1 and clone 7H110, C5aR antagonist PMX-53, and C5aR inhibitor Avacopan; 10 μL) in a total volume of 100 μL. Two control plasma samples (Ctrl 009 and Ctrl 010, 5 μL) prepared according to the procedure applied to the patient samples served as controls for unspecific activation. Blood with only saline (40 μL) or normal human plasma pool (huPP 5 μL+saline 35 μL) served as the non-stimulated control to define the baseline expression of CD11b. Blood sample with normal human plasma pool and spiked with recombinant human C5a (rhC5a) mimicked the stimulated condition. All samples were incubated at 37° C. for 20 min to activate CD11b upregulation. After cooling on ice, 2 μL of FITC-conjugated anti-mouse CD11b antibody was added to the samples. The labeled samples were kept on ice in the dark for another 30-min to minimize the background signal. Red blood cells were then lysed with 1×FACS Lysing solution at room temperature for 10 min. 2 mL Staining buffer was used to wash the remaining cells twice. After centrifugation at 2500 rpm for 3 min, cells were resuspended in 0.5 mL Staining buffer and ready for FACS analysis. A gate was set on the FSC vs. SSC plot to allow analysis only of cells with the size of neutrophils.
# The percentage of blocking activity (BA) of the C5a-C5aR axis blockade test material was calculated using the formula below. Where MFI is the mean fluorescence intensity emitted from the CD11b-bound FITC on neutrophils. BA (%)=(MFIPatient plasma−MFITest material spiked patient plasma)÷(MFIPatient plasma−MFIhuPP)×100 b) Statistical Analysis
# [2] = tested on: HS plasma-induced CD11b upregulation on blood neutrophils; test: CD11b upregulation on blood neutrophils induced by HS plasma (human whole blood model); format: cell-based; details: HS plasma samples Pat. 088 and Pat. 092, FIG. 6
# From the text: To determine the role of C5a in the HS plasma sample on the neutrophil activation, the HS plasma samples with high levels of C5a were chosen and assessed by employing the human whole blood model. […] Recombinant human C5a was used as the positive control, while the plasma from healthy volunteers was chosen as the negative control. […] From these novel results the inventors concluded that blockade of C5a in HS patients is sufficient to achieve a strong suppression on neutrophil activation.
# human = details: in vivo
# human C5a = molecular target: T1, human C5a; test: In vitro blocking of C5a-induced biological effects; format: cell-based; details: experimental in vitro settings
# [3] = tested on: zymosan-induced generation of IL-8 in human whole blood; test: Cytokine IL-8 ELISA after zymosan A stimulation of human whole blood; format: cell-based; details: various concentrations of zymosan A, FIG. 4
# Description: Human IL-8 ELISA was performed as recommended in the instruction manual under section “Assay procedure” (eBioscience Inc., San Diego, CA). Briefly, coating was performed overnight at 4° C. using 100 μl 1× capture antibody. Plates were blocked using 200 μl 1× assay diluents at RT for 1 h. Standard stock solutions were diluted with 1× assay diluents to the desired concentration, followed by 6 serial 1:2 dilutions. Sample supernatants were diluted as required in 1× assay diluents. According to the “Assay procedure”, 100 μl of standard dilutions and sample dilutions were added to the coated plate and incubated at RT for 1 h, followed by the incubation with 100 μl 1× detection antibody (RT, 1 h) and 100 μl 1× avidin-HRP (RT, 30 min). Color development was performed with 100 μl TMB substrate solution at RT for 10 min in the dark and was terminated with 100 μl stop solution. Absorbance was read out within 30 min using the plate reader at 450 nm. Zero standard value (blank) was subtracted from all standards and samples. Cytokine concentration of samples was calculated using a log(x)/log(y) standard curve of included standard samples.
# In the same experimental set-up, IL-8 levels were measured and used to assess the inflammatory response. IL-8 concentrations after various doses of zymosan A stimulation ranged from 458 pg/ml to 3218 pg/ml in the absence of IFX-1. […]
# cynomolgus monkey = test: Nonclinical tests and studies including GLP toxicology studies in cynomolgus monkey; details: in vitro/ex vivo tests and in vivo studies incl. GLP toxicology in cynomolgus monkey
# [4] = tested on: recombinant human C5a (rhC5a)-induced CD11b upregulation on blood neutrophils; test: CD11b assay in human whole blood stimulated with rhC5a; format: cell-based
# Description: Human whole blood was stimulated with rhC5a or ZAP. To test the blocking activity of IFX-1 and irrelative control IgG4 on rhC5a, the antibodies were diluted to final Ab/Ag molar ratios of 1:1 and 0.5:1. To test the blocking activity of IFX-1 on eC5a, IFX-1 was diluted to reach final Ab/Ag molar ratios of approximately 4:1/3:1/2:1/1:1/0.5:1. Blood only with buffer served as a non-stimulation control to assess the baseline CD11b expression. Blood with antibody alone was used to determine the effects on CD11b expression of the antibody under non-stimulated condition. The complete mixture (Ab/Ag/blood) was incubated at 37° C. for 20 min to evaluate C5a-induced up-regulation of CD11b. After addition of anti-mouse CD11b:FITC samples were incubated for 30 min on ice to minimize background staining. Granulocytes were gated and mean fluorescence intensity (MFI) of FITC labeled (CD11b expressing) granulocytes was examined by flow cytometer.
# Human blood was stimulated with rhC5a or zymosan A, and the complete mixture (Ab/Ag/blood) was incubated at 37° C. for 20 min to stimulate the C5a-induced up-regulation of CD11b. […] After lysis, cells were analyzed using flow cytometer. On the FSC/SSC dot-plot, granulocytes were gated and mean fluorescence intensity (MFI) of FITC labeled (CD11b expressing) granulocytes was examined for the whole sample set. […]
# [5] = tested on: patients with moderate to severe hidradenitis suppurativa
# Description: Primary objective of the trial was to explore the safety and tolerability of IFX-1 administered over 8 weeks. Secondary objectives of the trial were to assess the pharmacokinetics and pharmacodynamics of IFX-1 as well as to generate preliminary data on the efficacy of IFX-1 on clinical endpoints (e.g., HiSCR, DLQI, VAS for disease status, VAS for pain, HS-PGA, modified Sartorius Score) to generate further hypotheses. The enrolled patients were treated with 800 mg IFX-1 twice in the first week and once a week thereafter for the total 8-week treatment; i.e. IFX-1 was administered in nine intravenous doses of 800 mg IFX-1 on days 1, 4, 8, 15, 22, 29, 36, 43, and 50. All patients were followed up for 12 additional weeks.
# • 1. Male or female patients ≥18 years old • 2. Written informed consent • 3. Diagnosis of HS for at least 1 year • 4. HS lesions in at least 2 distinct anatomic areas, one of which is Hurley Stage II or III • 5. Total AN (abscesses and nodules) count ≥3 • 6. Patients with either primary or secondary failure of biological treatment or are not eligible for treatment with other biologicals • NOTE: a primary failure is defined as an at least 12 week treatment with a biological compound without effect and a secondary failure as achieving an initial response after at least 12 week treatment with a biological compound followed by a relapse. • 7. […]
# [6] = HS patient plasma Pat. 088, test material 100 μM
# [7] = HS patient plasma Pat. 088, test material 500 μM
# [8] = HS patient plasma Pat. 092, test material 100 μM
# [9] = HS patient plasma Pat. 092, test material 500 μM
# [10] = HS patient plasma Pat. 088, test material 50 nM
# [11] = HS patient plasma Pat. 088, test material 20 μM
# [12] = HS patient plasma Pat. 092, test material 50 nM
# [13] = HS patient plasma Pat. 092, test material 20 μM
# [14] = HS patient plasma Pat. 088, test material 20 nM
# [15] = HS patient plasma Pat. 092, test material 20 nM
molecule,measurement,setting,value
"Cc1ccc(NC(=O)[C@H]2CCCN(C(=O)c3c(C)cccc3F)[C@H]2c2ccc(NC3CCCC3)cc2)cc1C(F)(F)F [Avacopan, (2R,3S)-2-[4-(cyclopentylamino)phenyl]-1-(2-fluoro-6-methylbenzoyl)-N-[4-methyl-3-(trifluoromethyl)phenyl]piperidine-3-carboxamide]",CD11b upregulation induced by HS patient plasma,"[1]; 500 μM, FIG. 11",completely blocked
same,Blocking activity (%),[1]; [6],77.35%
same,CD11b (mean MFI),[1]; [6],5289
same,Blocking activity (%),[1]; [7],104.57%
same,CD11b (mean MFI),[1]; [7],3027
same,Blocking activity (%),[1]; [8],79.60%
same,CD11b (mean MFI),[1]; [8],5000
same,Blocking activity (%),[1]; [9],104.17%
same,CD11b (mean MFI),[1]; [9],3081.5
Ac-Phe-cyclo(Orn-Pro-D-Cha-Trp-Arg) [PMX-53],CD11b upregulation induced by HS patient plasma samples as well as by rhC5a,"[1]; 20 μM, FIG. 9B",completely abrogated
same,Blocking activity (%),[1]; [10],55.46%
same,CD11b (mean MFI),[1]; [10],4728.5
same,Blocking activity (%),[1]; [11],104.48%
same,CD11b (mean MFI),[1]; [11],2027.5
same,Blocking activity (%),[1]; [12],56.69%
same,CD11b (mean MFI),[1]; [12],4657.5
same,Blocking activity (%),[1]; [13],108.59%
same,CD11b (mean MFI),[1]; [13],1912.5
same,CD11b (mean MFI),"[1]; huPP + rhC5a (20 nM), test material 50 nM",4235.5
same,CD11b (mean MFI),"[1]; huPP + rhC5a (20 nM), test material 20 μM",1851
same,CD11b (mean MFI),"[1]; huPP, non-stimulated, test material 50 nM",2053.5
same,CD11b (mean MFI),"[1]; huPP, non-stimulated, test material 20 μM",2218.5
same,Blocking activity (%),"[1]; rhC5a-spiked huPP (20 nM rhC5a), test material 50 nM",50.30%
same,Blocking activity (%),"[1]; rhC5a-spiked huPP (20 nM rhC5a), test material 20 μM",107.88%
B1,suppression of CD11b upregulation induced by HS plasma,[2],100%
same,"safety laboratory parameters, vital signs and ECG parameters",human,no clinically relevant time or dose-related changes
same,efficiency of neutralizing the effects of 2 molecules C5a by one antibody,human C5a,~100%
same,reduction rate of IL-8 generation,[3],up to 54%
same,toxicological or safety concerns in nonclinical tests and studies,cynomolgus monkey,None of the conducted nonclinical tests and studies revealed any toxicological or safety concerns
same,blocking of rhC5a-stimulated CD11b up-regulation on human neutrophils,"[4]; human whole blood, Ab/Ag molar ratios 1:1 and 0.5:1, FIG. 1",completely blocked
same,blocking of CD11b up-regulation stimulated by rhC5a,"[4]; positive control of the zymosan A whole blood experiment, FIG. 3",100%
same,HiSCR responders,"[5]; out of 11 patients treated up to Day 56, 800 mg i.v.",8 patients
same,HiSCR response rate,"[5]; treatment period of 8 weeks, Day 56, 95% confidence interval 43% to 91%",72.7%
same,CD11b upregulation by rhC5a and HS patient plasma samples (Pat. 088 and Pat. 092),"[1]; 20 nM, FIG. 10",completely abolish
same,Blocking activity (%),[1]; [14],101.74%
same,CD11b (mean MFI),[1]; [14],2209
same,Blocking activity (%),[1]; [15],103.70%
same,CD11b (mean MFI),[1]; [15],2147
same,CD11b (mean MFI),"[1]; huPP + rhC5a (20 nM), test material 20 nM",2067
same,CD11b (mean MFI),"[1]; huPP, non-stimulated, test material 20 nM",2352
same,Blocking activity (%),"[1]; rhC5a-spiked huPP (20 nM rhC5a), test material 20 nM",104.29%
